According to US20190117586A1, “METHODS OF PREVENTING OR TREATING PARKINSON'S DISEASE BY THE FARNESYLATION OF PARIS” (The Johns Hopkins University, priority 2016, published 2019):

Legend:
[1] = target: FTase (Homo sapiens, UniProt P49354+P49356); assay: In vitro farnesylation of recombinant GST-PARIS by FTase and FPP; format: biochemical
Description: Next, a biotechnological approach to confirm that PARIS is prenylated was applied (Nguyen et al., 2009). The total cell lysate of SH-SY5Y cells transfected with Flag-tagged PARIS was incubated with a biotin-functionalized geranyl pyrophosphate analogue (Biotin-GPP) and the recombinant FTase W102T/Y154T mutant, which was engineered to utilize Biotin-GPP as a lipid donor (Nguyen et al., 2009). […] In addition, the immunoprecipitate of Flag-tagged PARIS from SH-SY5Y cells transfected with either siRNA-control or siRNA-FTase α was mixed with NBD-GPP, a […] fluorescent analog of FPP for an in vitro farnesylation assay (IVF). […] To determine whether FTase directly farnesylates PARIS, recombinant GST-PARIS was incubated with FTase and FPP in the presence and absence of the FTase inhibitor, FTI-277. GST-PARIS undergoes farnesylation by FTase, which is abolished by the addition of FTase inhibitor, FTI-277 (FIG. 3E).
The in vitro farnesylation assay (IVF) was performed as described (Nguyen et al., 2009; Nguyen et al., 2010; Wu et al., 2007). Briefly, for metabolic global farnesylation, 5 μCi [^3H]-farnesyl pyrophosphate (FPP) (NET1042001MC, PerkinElmer) was treated into SH-SY5Y cells and immunoprecipitant was monitored by immunoblot analysis with Farnesyl antibody. […] For fluorescence-based IVF, immunoprecipitated Flag-tagged PARIS was incubated for 20 min with NBD-GPP (LI-014, Jena Bioscience). […]

[2] = system: PARIS; assay: PARIS farnesylation in SH-SY5Y cells transfected with Flag-tagged PARIS (immunoprecipitation); format: cell-based; settings: PARIS overexpression, farnesol
Description: (§1) Geraniol or geranylgeraniol have no effect on PGC-1α levels (FIG. 3H).
To confirm that farnesylation of PARIS requires FTase, siRNA-FTase α knockdown or FTI-277 inhibition of FTase in the setting of PARIS overexpression was performed (FIG. 4C). […] To ascertain whether the farnesylation of PARIS affects the DNA binding activity of PARIS on the IRS motif of the PGC-1α promoter, a chromatin immunoprecipitation assay (ChIP) was performed from SH-SY5Y transfected with GFP-tagged PARIS WT or GFP-tagged PARIS C631S. […] To examine the possibility that the farnesylation of PARIS alters its subcellular distribution, subcellular fractionation was used to monitor the levels of PARIS in cytosolic, membrane, soluble nuclear, and chromatin-bound nuclear fractions by immunoblot analysis (FIG. 4F).

[3] = system: PGC-1α; assay: PGC-1α levels in SH-SY5Y cells by immunoblot; format: cell-based; settings: FIG. 3H
Description: The 9 compounds that activate the PGC-1α promoter in the presence of PARIS were evaluated to determine which compounds induce PGC-1α levels in SH-SY5Y cells (FIGS. 2A and 2B). […] The mRNA level of PGC-1α target genes including copper/zinc superoxide dismutase (SOD1), manganese SOD (SOD2), glutathione peroxidase (GPx1), catalase (CAT), nuclear respiratory factor-1 (NRF-1), mitochondrial transcription factor A (TFAM), mitochondrial uncoupling proteins (UCP2 and UCP3), and the oxidative phosphorylation regulators, ATP5b, cytochrome C (CytC) and cytochrome C oxidase (COX II and IV) were determined by real-time quantitative RT-PCR (qRT-PCR) (FIG. 2C).
as §1

SMILES | farnesylation of GST-PARIS by FTase [1] | farnesylation of PARIS by farnesol under FTase inhibition [2] | PGC-1α levels, specificity test with compounds of similar structure [3]
COC(=O)[C@H](CCSC)NC(=O)c1ccc(NC[C@@H](N)CS)cc1-c1ccccc1 [FTI-277, reference compound] | abolished | strongly prevents farnesylation of PARIS by farnesol | –
CC(C)=CCC/C(C)=C/CO [Geraniol] | – | – | no effect
CC(C)=CCC/C(C)=C/CC/C(C)=C/CC/C(C)=C/CO [geranylgeraniol] | – | – | no effect
